Experimental data published in publication PMC4997609, “Wedelolactone enhances osteoblastogenesis by regulating Wnt/β-catenin signaling pathway but suppresses osteoclastogenesis by NF-κB/c-fos/NFATc1 pathway” (Scientific Reports, 2016).

Molecular target: T1, GSK3β (Homo sapiens, UniProt P49841)
T1 construct: gene GSK3B
Assay: ADP-Glo kinase assay with GSK3β, GSK3β substrate and […] ATP
Type: biochemical

T1 sequence (P49841 whole entry): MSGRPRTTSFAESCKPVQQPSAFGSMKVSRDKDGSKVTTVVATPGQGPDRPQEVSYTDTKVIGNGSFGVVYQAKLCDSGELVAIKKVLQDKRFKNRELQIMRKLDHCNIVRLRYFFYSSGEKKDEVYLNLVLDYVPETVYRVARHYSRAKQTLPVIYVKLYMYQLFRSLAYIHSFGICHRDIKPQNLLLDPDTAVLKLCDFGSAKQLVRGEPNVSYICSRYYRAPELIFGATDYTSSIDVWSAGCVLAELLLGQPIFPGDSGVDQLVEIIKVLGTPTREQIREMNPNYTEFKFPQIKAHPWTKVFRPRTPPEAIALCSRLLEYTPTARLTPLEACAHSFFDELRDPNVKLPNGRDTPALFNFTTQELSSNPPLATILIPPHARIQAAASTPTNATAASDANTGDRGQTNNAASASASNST

`COc1cc(O)c2c(c1)oc(=O)c1c3cc(O)c(O)cc3oc21` [wedelolactone] gave an IC50 of 21.7 µM.
